Consider five compounds from article PMC11425624, “Synthesis of Novel Cu(II), Co(II), Fe(II), and Ni(II) Hydrazone Metal Complexes as Potent Anticancer Agents: Spectroscopic, DFT, Molecular Docking, and MD Simulation Studies” (ACS Omega, 2024).

Broadly, the IC50 is the concentration needed to halve the response being measured. High values mean a need for much substance, low ones inhibition by little substance. The viability is a per cent measure of how many cells are alive, often set against a control.

For one data set, the system named is A549. The data set can be described thus: MTT cytotoxic activity assay, A549 cells, 72 h. In kind it is cell-based, human. Particulars: for IC50: A549 human lung cancer cell line, MTT. Here is the method: (§1) The complexes were tested in human lung cancer and normal embryonic kidney cell lines for 72 h.
The MTT stock solution (50 μL, 5 mg/mL) was added to each well. Absorbance was measured using an Epoch 2 ELISA plate reader at 590 nm. The IC50 values were calculated using GraphPad Prism Software version 5.
A general note: Tetrazolium dyes change colour on reduction, which living cells bring about.

In the next data set the test system is HEK-293T. The data set can be described thus: MTT cytotoxic activity assay, HEK-293T cells, 72 h. In kind it is cell-based. Particulars: HEK-293T healthy human embryonic kidney cell line. Here is the method: as §1
Cytotoxic activity studies of compounds (L, L-Cu, L-Co, and L-Fe) were conducted according to the literature.[60] Human lung epithelial carcinoma cells (A549; ATCC CCL-185) and healthy human embryonic kidney cells (HEK-293T) were cultured in Dulbecco’s modified Eagle’s medium-high-glucose supplemented with 10% fetal bovine serum and 1% GlutaMAX in a CO2 incubator at 37 °C. Cells seeded in 96-well plates were exposed to 200, 100, 50, and 25 μM of compounds for 72 h. The MTT stock solution (50 μL, 5 mg/mL) was added to each well. Absorbance was measured using an Epoch 2 ELISA plate reader at 590 nm. The IC50 values were calculated using GraphPad Prism Software version 5.

Data set [1] in a line: Dissolution in cytotoxicity assay medium (0.5% DMSO, DMEM). The class given is physicochemical. An excerpt: When the ligand and L-Cu were compared, the cytotoxic effect of L-Cu was almost 17 times more cytotoxic than that of the ligand, including 2-hydroxybenzylidene and 4-fluorobenzohydrazide groups. […] However, the effect of the other two metal complexes (L-Co and L-Fe) and the ligand used as the starting material on the growth of A549 cells was very low compared to that of the positive control drug.

Setting [2] is: A549, 50 μM concentration of compound, 72 h.
Where [3] appears, read: A549, 200 μM concentration of compound, 72 h.

For the compound `O=C(NN=Cc1ccccc1O)c1ccc(F)cc1` [L, 4-Fluoro-N′-(2-hydroxybenzylidene)benzohydrazide], the results for the IC50 in the data set with A549 (72 h) and in the data set on HEK-293T were 36.7 µM and 18.2 µM, respectively. Moreover, in the data set on A549 (Homo sapiens, A549, 50 μM concentration of compound, 72 h, read-out: Cell viability), the viability at 50 µM came to 44.9%. Moreover, the viability at 200 µM in the data set on A549 (Homo sapiens, A549, 200 μM concentration of compound, 72 h, read-out: Cell viability rate) came to 8.51%.

Turning to `O=C(NN=Cc1ccccc1[O][Cu][O]c1ccccc1C=NNC(=O)c1ccc(F)cc1)c1ccc(F)cc1` [L-Cu], the Cell viability in the data set on A549 (setting [2]) stood at 5.10%. In the data set on A549 (setting [3]), this compound had a Cell viability rate of 4.66%. Also, the “Effectiveness relative to cisplatin” value in the data set on A549 (A549 cells) was “approximately twice”. Also, the IC50 is 2.14 µM in the data set on A549 (72 h) and 2.32 µM with HEK-293T. Moreover, the “Times more cytotoxic than the ligand” value in the data set on A549 (L-Cu compared with ligand L) is around 17 times.

In turn, `O=C(NN=Cc1ccccc1[O][Fe][O]c1ccccc1C=NNC(=O)c1ccc(F)cc1)c1ccc(F)cc1` [L-Fe] had a Cell viability in the data set with A549 (setting [2]) of 92.96%. The Cell viability rate in the data set with A549 (setting [3]) stood at 5.72%. In addition, the half-inhibitory concentration (IC50) in the data set with A549 (72 h) was found to be 78.8 µM; in the data set on HEK-293T, 69.2 µM.

For `O.O=C(NN=Cc1ccccc1[O-])c1ccc(F)cc1.O=C(NN=Cc1ccccc1[O-])c1ccc(F)cc1.[Ni+2]` [L-Ni], the “Solubility in assay medium” value in data set [1] is “not fully dissolved in 0.5% DMSO and was precipitated in DMEM”.

For the compound `N.N.[Cl][Pt][Cl]` [cisplatin, reference compound], the IC50 with A549 (72 h) was 4.23 µM; with HEK-293T, 2.62 µM.
